In US8415295B2, “Heterocyclic boronic acid compounds” (Phenomix Corporation, priority 2003, dated 2013):

Experiment: Dependence of aminoboronate (closed) and boronic acid (open) forms on pH, 1H-NMR in D2O phosphate
Assay type: physicochemical
Settings: 0.4 M Na2HPO4 in D2O, three days in the dark, FIG. 1
Protocol: A 0.4 M stock solution of Na2HPO4 was prepared by dissolving 909 mg of salt in 16 mL of D2O. pH was adjusted to the desired value by dropwise addition of either […] in D2O or 5% DCl in D2O. The pH values were measured with a Fisher Scientific Accumet AB15 pH meter. Aliquots of the stock solution (4 mL) were prepared and 8 mg of compound 4 in the closed form (aminoboronate) were added to each one. The scintillation vials were capped, sealed with parafilm and allowed to stand in the dark for three days. After this time pH was measured again. The open/closed (i.e., linear/cyclic) ratio of compound 4 isomers at each pH was determined by recording the corresponding ^1H-NMR spectra in a Varian AS 500 MHz instrument and measuring the ratio of the integrals of the peaks at 2.90-2.95 ppm and 2.40-2.50 ppm characteristic of the open and closed forms, respectively.

## O=C(CNC1CCCC1)N1CCC[C@H]1B(O)O [Compound 4, (2R)-1-(2-Cyclopentylamino-acetyl)-boroPro-OH]
  open/closed (linear/cyclic) ratio of isomers at each pH: the closed form predominates at higher pHs such as physiological pH, whereas the open form predominates at lower pHs
